Values joined by “and” are separate entries in the source; they are usually repeats but may differ in a detail not shown here. Identical values can stand only once. Where a SMILES comes first, the peptide text is derived from it.
Tests used:
[1] = Sweetness intensity of chewing gums versus chewing time, trained panel of experts (0-15 scale); assay type: in vivo; details: for average sweetness loss rate at 6-10 minutes / average sweetness intensity at 6-10 minutes / average sweetness loss rate at 10-20 minutes / average sweetness intensity at 10-20 minutes: isosweet sweetener concentrations; for average sweetness loss rate at 6-10 minutes / average sweetness intensity at 6-10 minutes: chewing time 6-10 minutes; for average sweetness intensity at 6-10 minutes / average sweetness intensity at 10-20 minutes: scale 0-15; for average sweetness loss rate at 10-20 minutes / average sweetness intensity at 10-20 minutes: chewing time 10-20 minutes
Protocol: FIG. 1 is a plot of the sweetness intensity of chewing gum prepared with sugar (sucrose), saccharin, aspartame, acesulfame-K, sucralose or neotame as a function of chewing time. Each chewing gum comprises the corresponding sweetener at a sweetener concentration that provides an identical (“isosweet”) degree of sweetness. The sweetness intensity was measured by a trained panel of experts and is expressed as the amount of sweetness based on a sweetness intensity scale of 0-15 units.
The sweetness profile of neotame in chewing gum is illustrated in FIG. 1. Also illustrated in FIG. 1 is a comparison of the sweetness intensity profiles, as measured by a trained panel of experts, of chewing gums prepared with neotame, aspartame, acesulfame-K, saccharin, sucralose, and sugar (sucrose). The sweetness detected is expressed as the amount of sweetness based on a universal sweetness scale of 0-15, and the values were obtained by having subjects of the trained panel chew pieces of gum containing the sweetener and reporting perceived sweetness after various chewing intervals. Since each chewing gum was prepared with an “isosweet” concentration (i.e., same level of sweetness; e.g., 100 ppm neotame and 3000 ppm aspartame are isosweet concentrations) of the respective sweetener and the scale is a measure of absolute sweetness at any point during chewing, the different sweetener profiles can be compared directly to each other.
Table 1 summarizes the sweetness intensity loss rates and average sweetness intensities which occur at a chewing time period of between 6 and 10 minutes and those which occur at a chewing time period between 10 and 20 minutes for a variety of sweeteners. The sweetness intensity loss rate is calculated as the difference in sweetness intensities measured at any two time points divided by the number of minutes of the time interval, and approximates the mathematical slope of the downward trend of sweetness intensity over time.
These values were determined by calculating the average sweetness intensity measured at the specified evaluation times. For example, for the chewing gum comprising neotame at between 6 and 10 minutes, the average sweetness intensity is determined to be (5.2+4.6+4.2)/3=4.7.
The advantage of sweetness extension provided by neotame can also be illustrated by comparison of the sweetness intensity half-lives over time. Table 2 summarizes the half-lives of sweetness intensity of chewing gums comprising different sweeteners after the maximum sweetness intensities (around two minutes) are reached. The half-life is a measure of the time of chewing in which half of the sweetness is lost relative to the time in which the sweetness intensity maximum is achieved.
(§1) The sensory profiling of chewing gum samples was carried out using the Spectrum Method of Descriptive Analysis (Meilgaard, M., Civille, G. V., Carr, B. T, 1999. Sensory Evaluation Techniques, 3rd Ed. CRC Press, New York, p. 173-229). Extensive sensory training was conducted in order to familiarize the panel, consisting of 6-8 individuals, with a product category, exposing the panel to the flavor attributes of the category and in-depth practice by the panelists in the use of a fifteen point scale for describing intensity differences. Once trained, the method enabled the trained panelists to indicate the sensory intensity of either sweetness intensity or flavor intensity in a universal context, where 0 indicates “none” of the attribute present, 2 approximates “threshold” intensities, 5 “slight or low” level, 7.5 “moderate” intensity, 10 “strong” and 15 “extreme”.
Chewing of the gums was initiated by the panel leader while starting a timer. As the time intervals 0.25, 0.5, 1.0, 2.0, 3.0, 4.0, 6.0, 8.0, 10.0, 12.0, 16.0, and 20.0 minutes approached, the panel leader gave panelists a five second warning and then called out the time to rate the attributes. To minimize fatigue, 3-4 samples were evaluated during one session. […]

[2] = Peppermint flavor intensity of chewing gums versus chewing time, trained panel of experts (0-15 scale); assay type: in vivo
Protocol: FIG. 2 is a plot of peppermint flavor intensity verses chewing time of chewing gums prepared with isosweet levels of aspartame (3000 ppm) and neotame (100 ppm). The chewing gum prepared with aspartame comprised a 1.5 wt % peppermint flavor, while the four neotame chewing gums comprised peppermint flavor at concentrations of 1.5, 1.25, 1.00, and 0.75 wt %. The peppermint flavor intensity was measured by a trained panel of experts and is plotted as a function of chewing time. The peppermint flavor intensity is expressed as the amount of peppermint flavor based on a universal peppermint intensity scale of 0-15 units.
As in the case of sweetness intensity comparisons, since the chewing gums were prepared with an identical amount of flavor and the scale is a measure of absolute flavor at any point during chewing, the different flavor profiles can be compared directly to each other. The rate of flavor intensity loss of the chewing gum comprising neotame is 0.0875 flavor intensity units per minute, while that of chewing gum comprising aspartame was determined to be 0.150 flavor intensity units per minute. Thus, the rate of flavor loss of a chewing gum comprising neotame is nearly half that of the flavor loss for a chewing gum comprising aspartame at an isosweet level and containing an equal concentration of peppermint flavor.
Table 4 summarizes the half-lives of both sweetness and flavor of chewing gums prepared with aspartame (3000 ppm) with 1.5 wt % flavor and neotame (100 ppm) with 1.5, 1.25, 1.00, and 0.75 wt % flavor amounts. The half-life is the time in minutes for the intensity to fall to half of its maximum value (sweetness, 2 minutes; flavor, 4 minutes).
as §1
Chewing of the gums was initiated by the panel leader while starting a timer. As the time intervals 0.25, 0.5, 1.0, 2.0, 3.0, 4.0, 6.0, 8.0, 10.0, 12.0, 16.0, and 20.0 minutes approached, the panel leader gave panelists a five second warning and then called out the time to rate the attributes. To minimize fatigue, 3-4 samples were evaluated during one session. Samples were assessed in duplicate, presented in a balanced order, unwrapped in two ounce plastic cups, and randomly coded with three-digit numbers. The panelists were given a ten minute break between samples to minimize carry-over effects. Water, Mott's Natural Applesauce and unsalted soda crackers were given as palate cleansers.
The data was analyzed for standard ANOVA for across sample comparison of attributes at each chew time. Data was then plotted as a graph of intensities vs. chewing time yielding either a sweetness or flavor profile for the entire chew time.

[3] = relative to sucrose; cited from earlier work
[4] = chewing time in which half of the sweetness is lost relative to the sweetness intensity maximum, isosweet concentrations
[5] = 1.50% flavor, time for intensity to fall to half of its maximum (2 minutes), aspartame 3000 ppm / neotame 100 ppm
[6] = 1.50% flavor, time for intensity to fall to half of its maximum (4 minutes), aspartame 3000 ppm / neotame 100 ppm
[7] = 1.50% peppermint flavor, isosweet aspartame 3000 ppm / neotame 100 ppm
[8] = 0.75% peppermint flavor, neotame 100 ppm
[9] = 1.00% peppermint flavor, neotame 100 ppm
[10] = 1.25% peppermint flavor, neotame 100 ppm
[11] = flavor amounts less than full-flavored (reduced to at least around 50%)
[12] = full-flavored chewing gum, about 4 to about 20 minutes of chewing

CC1=CC(=O)[N-]S(=O)(=O)O1.[K+] [acesulfame-K, the potassium salt of 3,4-dihydro-6-methyl-1,2,3-oxathiazine-4-one-2,2-dioxide]
average sweetness loss rate at 6-10 minutes ([1]; chewing gum): 0.45 intensity units/min | average sweetness intensity at 6-10 minutes ([1]; chewing gum): 4.3 intensity units | average sweetness loss rate at 10-20 minutes ([1]; chewing gum): 0.26 intensity units/min | average sweetness intensity at 10-20 minutes ([1]; chewing gum): 2.0 intensity units | half-life of sweetness intensity [1, 4]: 5.5 min

COC(=O)[C@H](Cc1ccccc1)NC(=O)[C@@H](N)CC(=O)O [aspartame] (HELM PEPTIDE1{D.F.[CO[*:1]]}$$$$V2.0)
half-life of sweetness intensity [1, 5]: 7.6 min | average sweetness loss rate at 6-10 minutes ([1]; chewing gum): 0.52 intensity units/min | average sweetness intensity at 6-10 minutes ([1]; chewing gum): 4.6 intensity units | average sweetness loss rate at 10-20 minutes ([1]; chewing gum): 0.25 intensity units/min | average sweetness intensity at 10-20 minutes ([1]; chewing gum): 2.3 intensity units | half-life of sweetness intensity [1, 4]: 6.4 min | half-life of peppermint flavor intensity [2, 6]: 19.7 min | average flavor intensity at 4-20 minutes [2, 7]: 4.2 intensity units | flavor loss rate at 4-20 minutes [2, 7]: 0.150 flavor intensity units per minute

COC(=O)[C@H](Cc1ccccc1)NC(=O)[C@H](CC(=O)O)NCCC(C)(C)C [neotame, N-[N-(3,3-dimethylbutyl)-L-α-aspartyl]-L-phenylalanine 1-methyl ester]
half-life of sweetness intensity ([1]; 0.75% flavor, neotame 100 ppm): 16.9 min | half-life of sweetness intensity ([1]; 1.00% flavor, neotame 100 ppm): 20.7 min | half-life of sweetness intensity ([1]; 1.25% flavor, neotame 100 ppm): 17.2 min | half-life of sweetness intensity [1, 5]: 17.0 min | sweetness intensity at 6 minutes ([1]; chewing gum, 100 ppm neotame, 6 minutes of chewing): 5.2 sweetness intensity units | sweetness intensity at 10 minutes ([1]; chewing gum, 100 ppm neotame, 10 minutes of chewing): 4.2 sweetness intensity units | sweetness intensity at 8 minutes ([1]; chewing gum, 100 ppm neotame, evaluation time between 6 and 10 minutes): 4.6 sweetness intensity units | half-life of sweetness intensity [1, 4]: 14.9 min | half-life of peppermint flavor intensity ([2]; 0.75% flavor, neotame 100 ppm): 33.1 min | average flavor intensity at 4-20 minutes [2, 8]: 3.9 intensity units | flavor loss rate at 4-20 minutes [2, 8]: 0.070 flavor intensity units per minute | half-life of peppermint flavor intensity ([2]; 1.00% flavor, neotame 100 ppm): 31.7 min | average flavor intensity at 4-20 minutes [2, 9]: 4.0 intensity units | flavor loss rate at 4-20 minutes [2, 9]: 0.075 flavor intensity units per minute | half-life of peppermint flavor intensity ([2]; 1.25% flavor, neotame 100 ppm): 31.3 min | average flavor intensity at 4-20 minutes [2, 10]: 4.2 intensity units | flavor loss rate at 4-20 minutes [2, 10]: 0.088 flavor intensity units per minute | half-life of peppermint flavor intensity [2, 6]: 44.3 min | average flavor intensity at 4-20 minutes [2, 7]: 4.6 intensity units | flavor loss rate at 4-20 minutes [2, 7]: 0.0875 flavor intensity units per minute and 0.088 flavor intensity units per minute | average flavor intensities at 4-20 minutes ([2]; chewing gums comprising neotame having less flavor amounts than 1.5%): around 4.0 intensity units | average flavor intensity [2, 11]: ≥ 3.5 flavor intensity units | average flavor loss rate [2, 11]: less than 0.1 flavor intensity units per minute | average flavor intensity [2, 12]: ≥ 4 flavor intensity units | average flavor loss rate [2, 12]: less than 0.1 flavor intensity units per minute | sweetness potency (× sweeter than sucrose) [3]: about 8000 ×

O=C1NS(=O)(=O)c2ccccc21 [saccharin]
average sweetness loss rate at 6-10 minutes ([1]; chewing gum): 0.52 intensity units/min | average sweetness intensity at 6-10 minutes ([1]; chewing gum): 3.1 intensity units | average sweetness loss rate at 10-20 minutes ([1]; chewing gum): 0.15 intensity units/min | average sweetness intensity at 10-20 minutes ([1]; chewing gum): 1.2 intensity units | half-life of sweetness intensity [1, 4]: 4.5 min

OC[C@H]1O[C@H](O[C@]2(CCl)O[C@H](CCl)[C@@H](O)[C@@H]2O)[C@H](O)[C@@H](O)[C@H]1Cl [sucralose]
average sweetness loss rate at 6-10 minutes ([1]; chewing gum): 0.52 intensity units/min | average sweetness intensity at 6-10 minutes ([1]; chewing gum): 3.3 intensity units | average sweetness loss rate at 10-20 minutes ([1]; chewing gum): 0.16 intensity units/min | average sweetness intensity at 10-20 minutes ([1]; chewing gum): 1.3 intensity units | half-life of sweetness intensity [1, 4]: 4.5 min

OC[C@H]1O[C@@](CO)(O[C@H]2O[C@H](CO)[C@@H](O)[C@H](O)[C@H]2O)[C@@H](O)[C@@H]1O [sucrose]
average sweetness loss rate at 6-10 minutes ([1]; chewing gum): 0.45 intensity units/min | average sweetness intensity at 6-10 minutes ([1]; chewing gum): 2.1 intensity units | average sweetness loss rate at 10-20 minutes ([1]; chewing gum): 0.11 intensity units/min | average sweetness intensity at 10-20 minutes ([1]; chewing gum): 0.6 intensity units | half-life of sweetness intensity [1, 4]: 3.5 min

Reference: patent US20020164397A1, “N-[N-(3, 3-DIMETHYLBUTYL)-L-ALPHA-ASPARTYL]-L-PHENYLALANINE 1-METHYL ESTER AS A SWEETENER IN CHEWING GUM” (priority 1998, published 2002)
